{"source": "patent US8329861B2", "about": "“Protein KTPAF50” (Two To Biotech Ltd., priority 2007, dated 2012)", "key": {"U937 cells": {"system": "U937 cells", "assay": "U937 tumor growth in athymic nude mice", "type": "in vivo", "settings": "nude mice inoculated s.c. with 15×10^6 U937 cells, 25 ug/mouse injected from day 9, versus saline control; FIG. 6", "description": "14 athymic nude female 8-9 week-old mice were purchased from Harlan Biotech, Israel. The mice were inoculated s.c. with 15×10^6 U937 cells. Tumors began to grow, and at day 9 the mice were divided into 2 groups: • A control group which was injected with saline. • A treated group which was injected with KTPAF50 (25 ug/mouse)\nAt day 20, 4 mice from the control group were sacrificed due to ethical reasons because they had huge tumors."}, "[1]": {"system": "U937 acute myeloid leukemia cells", "assay": "Viable cell detection with Resazurin, U937 cells", "type": "cell-based", "settings": "incubated one day, FIG. 4", "description": "(§1) U937 acute myeloid leukemia cells and PC3 prostate cancer cells were each grown in 10% FCS+RPMI medium and quadruplicates were inoculated into a 96 well plate, 20,000 cells/well.\n(§2) KTPAF50 was incubated with the cells for one day, and viable cells were detected using Resazurin (R&D System) and a spectrophotometer.\nIn order to determine whether the entire KTPAF50 peptide is required for activity, the experiment described in Example III above, using U937 cells, was repeated with the complete KTPAF50 peptide and fragments thereof."}, "[2]": {"system": "PC3 prostate cancer cells", "assay": "Viable cell detection with Resazurin, PC3 cells", "type": "cell-based", "settings": "incubated one day, FIG. 4", "description": "as §1, §2"}, "[3]": {"system": "human peripheral white blood cells (pWBC)", "assay": "Cytokine secretion from PHA-cultured human peripheral white blood cells treated with KTPAF50 (ELISA)", "type": "cell-based", "settings": "pWBC in PHA containing medium, treated for 3 days", "description": "In order to determine the potential effect of KTPAF50 on various diseases, KTPAF50 was incubated with human peripheral white blood cells (pWBC), and the amounts of a panel of cytokines were measured.\nTotal human white blood cells were cultured in PHA containing medium (Biological Industries INC—catalogue number—01-201-1) (2 million cells/well in 2 ml medium). The control cells were not treated.\nAt day 3 medium was harvested and subjected to ELISA analysis, using e-Bioscience kits for human IL-17 (catalogue number: 88-7176), human INF-γ (catalogue number: 88-7316) and human TNF-α (catalogue number: 88-7346. The results are summarized in FIGS. 1, 2 and 3."}}}
{"substance": "KTPAF50: KTPAF50 peptide devoid of the signal sequence, 50 amino acids: LRRREQAERGSRRCAIAGEERAMLSPSPLPETPFSPEKGAAFSPIYPRRK; chemically synthesized by Anaspec (listed as Homo sapiens)", "values": [{"measurement": "U937 tumor volume / tumor growth", "setting": "U937 cells", "value": "totally prevented tumor growth"}, {"measurement": "viable cells (normalized to the control amount)", "setting": "[1]", "value": "significant decrease in viable cells"}, {"measurement": "viable cells (normalized to the control amount)", "setting": "[2]", "value": "significant decrease in viable cells"}, {"measurement": "secretion of IL-17", "setting": "[3]; FIG. 1", "value": "stimulated the pWBC to secrete all three cytokines measured"}, {"measurement": "secretion of INF-γ", "setting": "[3]; FIG. 2", "value": "stimulated the pWBC to secrete all three cytokines measured"}, {"measurement": "secretion of TNF-α", "setting": "[3]; FIG. 3", "value": "stimulated the pWBC to secrete all three cytokines measured"}]}
